Measured values reported in patent publication US8629273B2, “Diazinylpyrazolyl compounds” (Bayer Intellectual Property GmbH, priority 2009, dated 2014).

Key:
[1] = logP by HPLC on reversed-phase columns (C 18), EU Guideline 79/831 Annex V.A8; type: physicochemical; conditions: ** LC-MS in the neutral range, pH 7.8, 0.001 molar aqueous ammonium bicarbonate and acetonitrile
[2] = test system: caterpillars of the army worm (Spodoptera frugiperda); test: Spodoptera frugiperda test (SPODFR spray treatment); type: in vivo; conditions: after 7 days
Description: Solvents: 78.0 parts by weight of acetone • • 1.5 parts by weight of dimethyl formamide Emulsifier: 0.5 part by weight of alkylaryl polyglycol ether To produce a suitable preparation of active compound, 1 part by weight of active compound is mixed with the stated amounts of solvent and emulsifier, and the concentrate is diluted with emulsifier-containing water to the desired concentration. Discs of maize leaves (Zea mays) are sprayed with an active compound preparation of the desired concentration and, after drying, populated with caterpillars of the army worm (Spodoptera frugiperda). After 7 days, the activity in % is determined. 100% means that all caterpillars have been killed; 0% means that none of the caterpillars have been killed. The test was carried out and evaluated as described in Example B.5.

[3] = test system: larvae of the mustard beetle (Phaedon cochleariae); test: Phaedon test (PHAECO spray treatment); type: in vivo; conditions: after 7 days
Description: Solvents: 78.0 parts by weight of acetone • • 1.5 parts by weight of dimethyl formamide Emulsifier: 0.5 part by weight of alkylaryl polyglycol ether To produce a suitable preparation of active compound, 1 part by weight of active compound is mixed with the stated amounts of solvent and emulsifier, and the concentrate is diluted with emulsifier-containing water to the desired concentration. Discs of Chinese cabbage leaves (Brassica pekinensis) are sprayed with an active compound preparation of the desired concentration and, after drying, populated with larvae of the mustard beetle (Phaedon cochleariae). After 7 days, the activity in % is determined. 100% means that all beetle larvae have been killed; 0% means that none of the beetle larvae have been killed. The test was carried out and evaluated as described in Example B.4.

[4] = test system: greenhouse red spider mite (Tetranychus urticae); test: Tetranychus test, OP resistant (TETRUR spray treatment); type: in vivo; conditions: after 6 days
Description: Solvents: 78.0 parts by weight of acetone • • 1.5 parts by weight of dimethyl formamide Emulsifier: 0.5 part by weight of alkylaryl polyglycol ether To produce a suitable preparation of active compound, 1 part by weight of active compound is mixed with the stated amounts of solvent and emulsifier, and the concentrate is diluted with emulsifier-containing water to the desired concentration. Discs of bean leaves (Phaseolus vulgaris) which are infested by all stages of the greenhouse red spider mite (Tetranychus urticae) are sprayed with an active compound preparation of the desired concentration. After 6 days, the activity in % is determined. 100% means that all spider mites have been killed; 0% means that none of the spider mites has been killed. The test was carried out and evaluated as described in Example B.7.

[5] = test system: Boophilus microplus; test: Boophilus microplus test (BOOPMI injection); type: in vivo; conditions: 20 μg/animal, injected into the abdomen, after 7 days
Description: Solvent: Dimethyl Sulphoxide To produce a suitable preparation of active compound, 10 mg of active compound are mixed with 0.5 ml of solvent, and the concentrate is diluted with water to the desired concentration. The active compound solution is injected into the abdomen (Boophilus microplus) and the animals are transferred into dishes and stored in a climatized room. The activity is monitored for deposition of fertile eggs. After 7 days, the activity in % is determined. 100% means that none of the ticks has laid fertile eggs.

[6] = test system: Boophilus microplus strain Parkhurst (SP-resistant); test: Boophilus microplus test (DIP); type: in vivo; conditions: 100 ppm
Description: Test animals: adult fed females of the Boophilus microplus strain Parkhurst (SP-resistant)
Solvent: Dimethyl sulphoxide
10 mg of active compound are dissolved in 0.5 ml of dimethyl sulphoxide. To produce a suitable formulation, the active compound solution is diluted with water to the particular desired concentration. This active compound preparation is pipetted into tubes. 8-10 ticks are transferred into a further tube provided with holes. The tube is dipped into the active compound preparation, with all ticks being wetted completely. After the liquid has run off, the ticks are transferred to filter discs in plastic dishes and kept in a climatized room. After the desired period of time, the activity is checked for deposition of fertile eggs. Eggs whose fertility is not visible from the outside are kept in glass tubes in a climatized cupboard under the larvae have hatched. An activity of 100% means that no tick has laid fertile eggs.

[7] = test system: Ctenocephalides felis; test: Ctenocephalides felis oral (CTECFE); type: in vivo; conditions: 100 ppm in citrated cattle blood, after 2 days
Description: Solvent: 1 part by weight of dimethyl sulphoxide To produce a suitable preparation of active compound, 10 mg of active compound are mixed with 0.5 ml of dimethyl sulphoxide. One part of the concentrate is diluted with citrated cattle blood, and the desired concentration is prepared. 20 unfed adult fleas (Ctenocephalides felis) are placed into a chamber whose top and bottom ends are closed with gauze. A metal cylinder whose bottom end is closed with parafilm is placed onto the chamber. The cylinder contains the blood/active compound preparation, which can be taken up by the fleas through the parafilm membrane. After 2 days, the kill in % is determined. 100% means that all fleas have been killed; 0% means that none of the fleas have been killed.

[8] = test system: Lucilia cuprina larvae; test: Lucilia cuprina test (LUCICU); type: in vivo; conditions: 100 ppm, treated horse meat, after 2 days
Description: Solvent: Dimethyl Sulphoxide To produce a suitable preparation of active compound, 10 mg of active compound are mixed with 0.5 ml of dimethyl sulphoxide, and the concentrate is diluted with water to the desired concentration. Containers containing horse meat treated with the active compound preparation of the desired concentration are populated with Lucilia cuprina larvae. After 2 days, the kill in % is determined. 100% means that all larvae have been killed; 0% means that none of the larvae have been killed.

[9] = test system: adult Musca domestica; test: Musca domestica test (MUSCDO); type: in vivo; conditions: treated sponge
Description: Solvent: Dimethyl sulphoxide To prepare a suitable preparation of active compound, 10 mg of active component are mixed with 0.5 ml of dimethyl sulphoxide, and the concentrate is diluted with water to the desired concentration. Vessels containing a sponge which had been treated with the active compound preparation of the desired concentration are populated with adult Musca domestica. After the desired period of time, the kill in % is determined. 100% means that all flies have been killed; 0% means that none of the flies have been killed.

SMILES	logP [1]	activity (caterpillars killed) ([2]; 100 g/ha)	activity (beetle larvae killed) ([3]; 100 g/ha)	activity (spider mites killed) ([4]; 100 g/ha)	activity (no deposition of fertile eggs) [5] [%]	activity (no deposition of fertile eggs) [6] [%]	kill [7] [%]	kill [8] [%]	kill ([9]; 20 ppm) [%]	kill ([9]; 100 ppm) [%]	activity (caterpillars killed) ([2]; 20 g/ha) [%]	activity (spider mites killed) ([4]; 20 g/ha)	activity (beetle larvae killed) ([3]; 4 g/ha) [%]
COc1cc(C=Nc2c(-c3cc(Cl)cc(C(F)(F)F)c3)c(C(F)(F)F)nn2-c2ncccn2)ccc1O [Example 1-10]	4.05**	100%	100%	100%									
FC(F)C(F)(F)c1nn(-c2ncccn2)c(N=Cc2ccc(Cl)cc2)c1-c1cc(Cl)c2c(c1)OCO2 [Example 1-22]	4.34**	100%	100%	90%	100	100	100	100					
COc1nccnc1-n1nc(C(F)(F)F)c(-c2cc(Cl)c3c(c2)OCO3)c1N=COC(C)C [Example 2-19]	4.26**	100%	100%	100%	100	80	90	100	100				
CC(C)OC=Nc1c(-c2cc(Cl)c3c(c2)OCO3)c(C(F)(F)C(F)F)nn1-c1ncccn1 [Example 1-38]	3.66**	100%	100%	100%	100	100	100	100	100				
COc1nccnc1-n1nc(C(F)(F)C(F)F)c(-c2cc(Cl)cc(C(F)(F)F)c2)c1N=COC(C)C [Example 2-20]	5.1**			100%	100			100		80			
COc1ccc(C=Nc2c(-c3cc(Cl)cc(C(F)(F)F)c3)c(C(F)(F)C(F)F)nn2-c2ncccn2)cc1 [Example 1-21]	3.69**	100%	100%	90%	100		100	100		100			
FC(F)(F)c1cc(Cl)cc(-c2c(C(F)(F)C(F)(F)F)nn(-c3ncccn3)c2N=Cc2ccc(Cl)cc2)c1 [Example 1-40]	5.93**	100%	100%	100%	100		100	100		100			
CCOC=Nc1c(-c2cc(Cl)c3c(c2)OCO3)c(C(F)(F)C(F)F)nn1-c1ncccn1 [Example 1-35]	3.42**	100%	100%	90%	100	100	100	100	100				
COc1ccc(CNc2c(-c3cc(Cl)cc(C(F)(F)F)c3)c(C(F)(F)F)nn2-c2ncccn2)cc1 [compound (XXII), reference compound]		no activity	no activity	no activity									
FC(F)(F)c1nn(-c2ncccn2)c(NCc2ccccc2)c1-c1cc(Cl)c2c(c1)OCO2 [compound (XXI), reference compound]											0	0%	
FC(F)(F)c1nn(-c2ncccn2)c(N=Cc2ccccc2)c1-c1cc(Cl)c2c(c1)OCO2 [Example 1-18]	3.97**	100%	100%	90%	100	100	100	100	80		67	at least 90%	
CC(C)OC=Nc1c(-c2cc(Cl)cc(C(F)(F)F)c2)c(C(F)(F)C(F)(F)F)nn1-c1ncccn1 [Example 1-44]	5.31**	100%	100%	100%									
COc1ccc(C=Nc2c(-c3cc(Cl)cc(C(F)(F)F)c3)c(C(F)(F)F)nn2-c2ncccn2)cc1 [Example 1-17]	4.98**	100%	100%	100%	100		100	100	100				
FC(F)(F)c1cc(Cl)cc(-c2c(C(F)(F)F)nn(-c3ncccn3)c2N=Cc2ccccc2)c1 [Example 1-12]	4.92**	100%	100%	100%	100		100	100	100		100		100
COc1ccc(C=Nc2c(-c3cc(Cl)cc(C(F)(F)F)c3)c(C(F)(F)C(F)(F)F)nn2-c2ncccn2)cc1 [Example 1-41]	5.4**	100%	100%	100%	100		100	100		100			
